Results reported in ChEMBL document CHEMBL1132362, “Synthesis of 5-(carboranylalkylmercapto)-2'-deoxyuridines and 3-(carboranylalkyl)thymidines and their evaluation as substrates for human thymidine kinases 1 and 2” (J Med Chem, 1999).

Tested on: Thymidine Kinase (TK1)
Assay: Kinetic constant Km for Thymidine Kinase (TK1)
Assay type: ADME

Cc1cn([C@H]2C[C@H](O)[C@@H](CO)O2)c(=O)[nH]c1=O [DOXRIBTIMINE]
Km: 1 µM
